# Active and inactive are the calls of the source.
# Key:
# [1] = A cytotoxicity screen of small molecule inhibitors of the PhoP region in Salmonella typhi identified in the primary screen. [Related pubchem assays: 1850, 1864, 1985 ]; type: functional
# Cytochrome P450 2D6 = Cytochrome P450 2D6 (Homo sapiens, UniProt P10635);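 also: CYP2D6 member of a cytochrome P450 panel assay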
# [2] = target: Photoreceptor-specific nuclear receptor (Homo sapiens, UniProt Q9Y5X4); test: NR2E3 inverse agonists, dose response, biochemical, TR-FRET (AID 463256); type: functional
# Chain of Photoreceptor-specific nuclear receptor (Q9Y5X4 whole entry): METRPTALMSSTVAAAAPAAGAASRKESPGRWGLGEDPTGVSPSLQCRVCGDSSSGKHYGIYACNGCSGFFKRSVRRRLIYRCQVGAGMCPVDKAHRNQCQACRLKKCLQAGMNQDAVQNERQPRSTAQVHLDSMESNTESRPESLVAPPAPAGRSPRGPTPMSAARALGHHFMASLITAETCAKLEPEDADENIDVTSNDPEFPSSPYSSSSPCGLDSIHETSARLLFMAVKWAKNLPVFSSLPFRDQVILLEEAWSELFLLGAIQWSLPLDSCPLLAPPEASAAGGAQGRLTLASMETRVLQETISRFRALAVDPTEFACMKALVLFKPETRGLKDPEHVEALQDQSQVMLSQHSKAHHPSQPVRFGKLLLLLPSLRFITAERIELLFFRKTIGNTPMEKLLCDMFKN
# [3] = target: Peroxisome proliferator-activated receptor gamma/Nuclear receptor corepressor 2 (Homo sapiens, UniProt P37231+Q9Y618); test: Counterscreen for NR2E3 inverse agonists: TR-FRET-based biochemical high throughput dose response assay to identify inverse agonists of the interaction between peroxisome proliferator-activated receptor gamma (PPARg) and nuclear receptor co-repressor 2 (NCOR2).; type: functional
# Chain of Peroxisome proliferator-activated receptor gamma/Nuclear receptor corepressor 2 (P37231 whole entry): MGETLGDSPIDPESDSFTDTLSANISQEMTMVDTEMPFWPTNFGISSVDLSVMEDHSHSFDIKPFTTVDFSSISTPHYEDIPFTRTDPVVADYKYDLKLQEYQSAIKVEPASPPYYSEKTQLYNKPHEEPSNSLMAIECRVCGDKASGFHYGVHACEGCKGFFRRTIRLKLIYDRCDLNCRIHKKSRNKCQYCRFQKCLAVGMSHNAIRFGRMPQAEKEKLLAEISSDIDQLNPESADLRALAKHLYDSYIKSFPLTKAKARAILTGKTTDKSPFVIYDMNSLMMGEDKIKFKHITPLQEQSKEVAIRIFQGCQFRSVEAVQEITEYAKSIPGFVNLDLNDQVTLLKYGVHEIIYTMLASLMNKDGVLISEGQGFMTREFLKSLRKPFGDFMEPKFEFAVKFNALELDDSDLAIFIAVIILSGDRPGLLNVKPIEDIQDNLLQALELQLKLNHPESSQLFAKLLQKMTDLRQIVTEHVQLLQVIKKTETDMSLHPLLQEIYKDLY
# Chain of Peroxisome proliferator-activated receptor gamma/Nuclear receptor corepressor 2 (Q9Y618 whole entry): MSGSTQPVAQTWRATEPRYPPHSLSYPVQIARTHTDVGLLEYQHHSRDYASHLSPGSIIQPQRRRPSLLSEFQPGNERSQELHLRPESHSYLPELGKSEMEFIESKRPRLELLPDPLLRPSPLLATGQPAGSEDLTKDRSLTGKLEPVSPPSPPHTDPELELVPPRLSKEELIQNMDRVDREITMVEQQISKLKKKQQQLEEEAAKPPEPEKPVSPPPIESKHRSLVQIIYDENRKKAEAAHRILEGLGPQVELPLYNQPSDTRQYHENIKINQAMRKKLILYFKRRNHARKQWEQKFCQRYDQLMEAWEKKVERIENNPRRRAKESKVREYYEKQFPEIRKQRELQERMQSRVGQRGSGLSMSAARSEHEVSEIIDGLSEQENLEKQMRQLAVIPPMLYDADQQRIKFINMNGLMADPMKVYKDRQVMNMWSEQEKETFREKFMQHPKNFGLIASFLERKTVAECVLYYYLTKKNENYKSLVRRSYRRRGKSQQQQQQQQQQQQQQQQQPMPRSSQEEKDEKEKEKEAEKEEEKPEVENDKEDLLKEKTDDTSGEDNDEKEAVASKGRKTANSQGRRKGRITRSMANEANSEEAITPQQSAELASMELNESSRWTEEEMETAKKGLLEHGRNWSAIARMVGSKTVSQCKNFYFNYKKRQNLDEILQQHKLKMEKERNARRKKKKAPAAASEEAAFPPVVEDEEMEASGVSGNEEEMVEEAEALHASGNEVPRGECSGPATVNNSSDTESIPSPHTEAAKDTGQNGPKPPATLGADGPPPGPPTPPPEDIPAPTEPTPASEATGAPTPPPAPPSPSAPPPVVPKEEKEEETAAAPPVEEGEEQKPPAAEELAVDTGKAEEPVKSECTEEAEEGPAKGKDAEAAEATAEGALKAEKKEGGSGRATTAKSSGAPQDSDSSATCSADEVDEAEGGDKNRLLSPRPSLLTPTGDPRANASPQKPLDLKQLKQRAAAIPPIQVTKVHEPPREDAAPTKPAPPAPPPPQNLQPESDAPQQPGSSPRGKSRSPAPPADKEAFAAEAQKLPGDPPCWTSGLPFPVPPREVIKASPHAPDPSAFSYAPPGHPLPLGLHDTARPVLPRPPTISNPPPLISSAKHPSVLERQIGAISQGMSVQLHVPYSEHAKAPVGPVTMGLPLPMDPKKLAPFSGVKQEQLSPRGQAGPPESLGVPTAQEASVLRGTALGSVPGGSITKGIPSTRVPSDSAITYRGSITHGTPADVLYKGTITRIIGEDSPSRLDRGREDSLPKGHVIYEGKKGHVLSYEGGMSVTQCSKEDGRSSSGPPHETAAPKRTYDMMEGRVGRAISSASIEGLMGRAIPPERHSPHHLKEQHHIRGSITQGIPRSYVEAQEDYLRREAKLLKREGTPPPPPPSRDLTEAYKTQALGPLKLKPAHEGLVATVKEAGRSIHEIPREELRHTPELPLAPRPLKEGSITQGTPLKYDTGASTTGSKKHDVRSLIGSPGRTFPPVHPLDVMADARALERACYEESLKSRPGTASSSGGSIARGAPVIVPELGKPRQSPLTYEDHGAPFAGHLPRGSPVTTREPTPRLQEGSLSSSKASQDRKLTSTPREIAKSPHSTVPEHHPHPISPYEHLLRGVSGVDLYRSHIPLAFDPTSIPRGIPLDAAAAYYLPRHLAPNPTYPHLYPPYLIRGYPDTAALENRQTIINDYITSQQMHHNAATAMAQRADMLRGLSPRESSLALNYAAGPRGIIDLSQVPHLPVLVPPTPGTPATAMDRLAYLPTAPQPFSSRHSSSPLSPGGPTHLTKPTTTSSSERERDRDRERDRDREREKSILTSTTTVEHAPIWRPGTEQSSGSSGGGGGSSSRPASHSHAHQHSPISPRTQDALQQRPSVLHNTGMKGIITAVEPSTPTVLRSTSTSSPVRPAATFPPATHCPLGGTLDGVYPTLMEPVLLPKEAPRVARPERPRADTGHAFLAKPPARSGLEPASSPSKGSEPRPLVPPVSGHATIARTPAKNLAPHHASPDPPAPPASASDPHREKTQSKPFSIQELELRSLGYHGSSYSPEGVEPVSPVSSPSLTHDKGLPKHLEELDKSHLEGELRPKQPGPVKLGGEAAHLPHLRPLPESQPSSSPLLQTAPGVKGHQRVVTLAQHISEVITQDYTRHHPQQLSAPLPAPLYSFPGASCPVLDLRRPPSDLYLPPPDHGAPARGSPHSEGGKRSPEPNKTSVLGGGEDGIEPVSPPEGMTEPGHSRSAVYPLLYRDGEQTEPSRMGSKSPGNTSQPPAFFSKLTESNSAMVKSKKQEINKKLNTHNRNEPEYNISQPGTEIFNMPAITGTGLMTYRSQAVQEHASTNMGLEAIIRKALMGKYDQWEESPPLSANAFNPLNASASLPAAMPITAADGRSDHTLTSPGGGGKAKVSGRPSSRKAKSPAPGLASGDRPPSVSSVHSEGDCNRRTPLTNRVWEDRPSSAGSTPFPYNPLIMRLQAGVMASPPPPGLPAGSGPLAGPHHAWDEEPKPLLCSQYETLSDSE
# Cytochrome P450 2C19 = Cytochrome P450 2C19 (Homo sapiens, UniProt P33261); test: Cytochrome panel assay with activity outcomes. Panel member name: p450-cyp2c19 Compounds with AC50 equal or less than 10 uM are considered active; type: functional
# Chain of Cytochrome P450 2C19 (P33261 whole entry): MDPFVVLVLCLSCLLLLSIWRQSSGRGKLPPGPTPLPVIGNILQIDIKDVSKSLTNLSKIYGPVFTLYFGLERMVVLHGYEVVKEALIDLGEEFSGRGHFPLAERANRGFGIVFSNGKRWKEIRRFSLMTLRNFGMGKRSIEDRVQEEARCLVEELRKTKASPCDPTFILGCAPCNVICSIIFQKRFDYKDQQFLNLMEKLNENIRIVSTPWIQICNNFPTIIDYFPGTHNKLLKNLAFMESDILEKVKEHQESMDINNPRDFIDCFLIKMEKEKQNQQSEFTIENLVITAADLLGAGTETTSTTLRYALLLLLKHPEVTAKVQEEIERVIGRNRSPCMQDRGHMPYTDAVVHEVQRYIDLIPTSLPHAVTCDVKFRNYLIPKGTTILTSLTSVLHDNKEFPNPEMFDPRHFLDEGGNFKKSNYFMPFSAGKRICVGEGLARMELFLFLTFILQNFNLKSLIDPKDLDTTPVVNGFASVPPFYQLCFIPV
# [4] = inhibitors of intracellular T. cruzi replication, confirmation, NIH3T3 host cells, beta-gal luminescence (AID 2044); type: functional, cell-based;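 also: intracellular parasites grown in NIH/3T3 mouse fibroblasts as host cells; luminescent beta-galactosidase reporter signal from transgenic T. cruzi replicating inside host cells; inhibitors lower the luminescence signal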
# [5] = target: Induced myeloid leukemia cell differentiation protein Mcl-1 (Homo sapiens, UniProt Q07820); type: functional
# [6] = cytotoxicity toward NIH3T3 fibroblasts, dose response, counter-screen, cell-based, ATP luminescence, mouse fibroblasts (AID 2010); type: functional;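 also: cells exposed to compound for about 90 hours before reading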
# Trypsin = Trypsin (Sus scrofa, UniProt P00761); test: porcine trypsin inhibitors, dose response, selectivity assay for Rce1 protease inhibitor project, biochemical, quenched peptide fluorescence, cherry-pick (AID 488789)
# [7] = target: FAD-linked sulfhydryl oxidase ALR (Homo sapiens, UniProt P55789); test: inhibitors of human ALR sulfhydryl oxidase, dose response, biochemical, H2O2 detection, luminescence, cherry-pick (AID 493248)
# Chain of FAD-linked sulfhydryl oxidase ALR (P55789 whole entry): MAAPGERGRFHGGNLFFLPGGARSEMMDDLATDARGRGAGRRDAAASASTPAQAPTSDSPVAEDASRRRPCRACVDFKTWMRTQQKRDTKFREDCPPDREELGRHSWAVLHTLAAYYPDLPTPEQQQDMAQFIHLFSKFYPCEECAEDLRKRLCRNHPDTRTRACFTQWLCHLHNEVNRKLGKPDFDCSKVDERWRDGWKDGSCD
# [8] = Luminescence Cell-Based Dose Response to Identify Activators of Luciferase Translation or Activity in H4-C Neuroglioblastoma Cells. [Related pubchem assays: 1829 (Project Summary), 1814 (Primary HTS)]; type: functional
# [9] = Luminescence Cell-Based Dose Confirmation to Identify Activators of 5'UTR Stem-Loop Driven Alpha-Synuclein mRNA Translation in H4 Neuroglioblastoma Cells. [Related pubchem assays: 1829 (Project Summary), 1814 (Primary HTS)]; type: functional
# [10] = Luminescence Cell-Based Dose Response to Identify Activators of 5'UTR Stem-Loop Driven Prion Protein mRNA Translation in H4-C Neuroglioblastoma Cells. [Related pubchem assays: 1829 (Project Summary), 1814 (Primary HTS)]; type: functional
# H4 = test: Luminescence Cell-Based Dose Response HTS to Identify Activators of 5'UTR Stem-Loop Driven Prion Protein mRNA Translation in H4 Neuroglioblastoma Cells. [Related pubchem assays: 1829 (Project Summary), 1814 (Primary HTS)]; type: functional; conditions: Homo sapiens
# [11] = Luminescence Cell-Based Dose Response HTS to Identify Activators of Luciferase Translation or Activity in H4 […] Cells. [Related pubchem assays: 1829 (Project Summary), 1814 (Primary HTS)]; type: functional
# Cytochrome P450 2C9 = Cytochrome P450 2C9 (Homo sapiens, UniProt P11712)
# [12] = growth suppression of beta-catenin-knockout colon cells, dose response, cell-based, HCT116, human colon tumor (AID 1045); type: functional;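 also: HCT116 colon tumor cells with beta catenin knocked out; cells exposed to compound for 60 hours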
# [13] = target: T1, Replicative DNA helicase DnaB (Mycobacterium tuberculosis, UniProt P9WMR3); test: DnaB intein splicing inhibitors, dose response, biochemical, cell-free fluorescence (AID 449749); type: functional
# T1 sequence (P9WMR3 whole entry): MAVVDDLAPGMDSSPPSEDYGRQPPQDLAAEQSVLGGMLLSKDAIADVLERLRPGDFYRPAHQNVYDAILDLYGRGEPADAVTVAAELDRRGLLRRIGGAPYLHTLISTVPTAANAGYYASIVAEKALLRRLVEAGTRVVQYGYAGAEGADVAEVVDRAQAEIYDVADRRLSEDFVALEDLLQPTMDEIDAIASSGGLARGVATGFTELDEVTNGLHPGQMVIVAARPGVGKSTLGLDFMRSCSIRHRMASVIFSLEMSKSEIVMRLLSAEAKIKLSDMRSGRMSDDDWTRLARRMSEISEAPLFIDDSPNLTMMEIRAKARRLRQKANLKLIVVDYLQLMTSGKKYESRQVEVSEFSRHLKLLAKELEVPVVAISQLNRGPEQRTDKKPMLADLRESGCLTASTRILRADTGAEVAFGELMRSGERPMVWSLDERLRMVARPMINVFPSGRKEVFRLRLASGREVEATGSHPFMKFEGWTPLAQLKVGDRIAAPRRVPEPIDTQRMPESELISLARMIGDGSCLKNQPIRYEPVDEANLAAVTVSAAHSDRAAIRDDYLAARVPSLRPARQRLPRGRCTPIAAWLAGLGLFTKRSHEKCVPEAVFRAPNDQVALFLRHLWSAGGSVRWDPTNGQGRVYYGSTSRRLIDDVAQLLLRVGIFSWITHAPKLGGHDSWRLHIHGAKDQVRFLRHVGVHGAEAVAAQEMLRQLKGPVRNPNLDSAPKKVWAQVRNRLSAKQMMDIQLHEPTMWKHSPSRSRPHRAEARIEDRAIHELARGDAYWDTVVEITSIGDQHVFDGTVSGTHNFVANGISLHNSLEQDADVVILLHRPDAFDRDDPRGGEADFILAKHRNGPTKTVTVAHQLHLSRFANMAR
# Protein RecA = target: T2, Protein RecA (Mycobacterium tuberculosis, UniProt P9WHJ3); test: Fluorescence Cell-Free Homogeneous Dose Retest to Identify Inhibitors of RecA-Intein Splicing Activity. [Related pubchem assays (depositor defined):AID2097, AID2223, AID489010, AID492950]; type: functional
# T2 sequence (P9WHJ3 whole entry): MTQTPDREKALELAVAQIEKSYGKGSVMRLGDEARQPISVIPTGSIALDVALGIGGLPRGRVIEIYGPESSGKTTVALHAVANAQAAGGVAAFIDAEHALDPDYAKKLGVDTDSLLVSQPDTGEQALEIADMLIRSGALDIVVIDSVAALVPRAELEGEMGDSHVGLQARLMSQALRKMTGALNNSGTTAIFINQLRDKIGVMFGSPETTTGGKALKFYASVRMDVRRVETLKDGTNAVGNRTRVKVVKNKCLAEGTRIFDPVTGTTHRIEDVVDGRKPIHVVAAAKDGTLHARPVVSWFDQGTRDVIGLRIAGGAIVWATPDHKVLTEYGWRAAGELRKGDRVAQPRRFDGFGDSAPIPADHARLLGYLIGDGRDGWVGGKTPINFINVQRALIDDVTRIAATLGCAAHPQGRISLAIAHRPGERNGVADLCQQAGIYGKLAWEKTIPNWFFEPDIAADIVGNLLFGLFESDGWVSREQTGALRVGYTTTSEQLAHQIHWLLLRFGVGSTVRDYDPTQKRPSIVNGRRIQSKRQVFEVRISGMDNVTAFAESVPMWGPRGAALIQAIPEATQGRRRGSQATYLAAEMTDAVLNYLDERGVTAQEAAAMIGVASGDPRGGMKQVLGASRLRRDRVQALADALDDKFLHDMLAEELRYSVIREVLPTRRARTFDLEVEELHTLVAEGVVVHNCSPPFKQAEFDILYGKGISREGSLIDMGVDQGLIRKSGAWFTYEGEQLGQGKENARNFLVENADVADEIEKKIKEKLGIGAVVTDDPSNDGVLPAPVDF
# [14] = growth suppression of PTEN-null colon cells, dose response, cell-based, HCT116 PTEN knockout (AID 1047); type: functional;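 also: HCT116 colon tumor cells with PTEN knocked out; cells exposed to compound for 60 hours before readout; potency for loss of cell viability measured by luminescence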
# [15] = target: T3, Microphthalmia-associated transcription factor (Homo sapiens, UniProt O75030); test: TRPM1 promoter luciferase signal decrease, dose response, MITF inhibitor project, cell-based, SK-MEL-5, cherry-picked, set 3 (AID 493073); type: functional
# T3 sequence (O75030 whole entry): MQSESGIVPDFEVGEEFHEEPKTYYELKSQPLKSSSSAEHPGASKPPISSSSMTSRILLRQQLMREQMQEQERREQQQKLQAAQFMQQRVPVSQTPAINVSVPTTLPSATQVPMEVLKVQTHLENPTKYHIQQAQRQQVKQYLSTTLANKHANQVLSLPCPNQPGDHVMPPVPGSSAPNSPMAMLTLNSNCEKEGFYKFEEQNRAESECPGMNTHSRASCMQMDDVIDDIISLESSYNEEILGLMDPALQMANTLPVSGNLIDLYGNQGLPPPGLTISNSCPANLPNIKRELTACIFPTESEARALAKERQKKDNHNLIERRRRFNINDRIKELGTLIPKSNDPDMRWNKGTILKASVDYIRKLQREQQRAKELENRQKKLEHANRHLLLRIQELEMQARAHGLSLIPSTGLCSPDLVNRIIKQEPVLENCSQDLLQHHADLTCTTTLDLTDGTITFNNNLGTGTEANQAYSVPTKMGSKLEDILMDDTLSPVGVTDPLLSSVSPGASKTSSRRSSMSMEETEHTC
# [16] = THP-1 cell cytotoxicity, dose response, cytotoxicity control for Vif-APOBEC3G degradation inhibitor project, THP-1 cells (AID 1117359); type: functional; conditions: Human immunodeficiency virus 1, THP-1
# Genome polyprotein = Genome polyprotein (dengue virus type 2, UniProt P29990); test: Dengue-2 NS5 methyltransferase inhibitors, primary screen, biochemical, confirmation dose response (AID 588689); type: functional
# Beta-galactosidase = Beta-galactosidase (Escherichia coli, UniProt Q8VNN2); test: beta-galactosidase enzyme inhibitors and activators, dose response, artefact control for CCR6 antagonist project, biochemical, E. coli enzyme, set 3 (AID 504712); type: functional
# Paired box protein Pax-8 = Paired box protein Pax-8 (Homo sapiens, UniProt Q06710); test: inhibitors of PAX8-driven TPO luciferase reporter, dose response, RMG-I cells, cherry-pick (AID 687027); type: functional, cell-based;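 also: luciferase reporter driven by Pax8 target thyroperoxidase promoter measured by SteadyGlo luminescence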
# Chain of Paired box protein Pax-8 (Q06710 whole entry): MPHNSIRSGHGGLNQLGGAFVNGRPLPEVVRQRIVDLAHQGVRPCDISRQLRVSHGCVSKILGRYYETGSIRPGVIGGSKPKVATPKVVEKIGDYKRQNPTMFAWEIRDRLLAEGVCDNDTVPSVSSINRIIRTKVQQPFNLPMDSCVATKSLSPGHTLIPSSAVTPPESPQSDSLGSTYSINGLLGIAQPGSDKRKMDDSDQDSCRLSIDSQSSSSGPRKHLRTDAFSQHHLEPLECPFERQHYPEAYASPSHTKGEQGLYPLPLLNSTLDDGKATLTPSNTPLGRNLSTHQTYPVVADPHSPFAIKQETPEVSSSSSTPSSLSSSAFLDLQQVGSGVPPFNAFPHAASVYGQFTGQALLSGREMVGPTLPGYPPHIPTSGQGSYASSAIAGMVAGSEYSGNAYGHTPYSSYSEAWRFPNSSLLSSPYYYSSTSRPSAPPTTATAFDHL
# HeLa = test: HeLa cell cytotoxicity, dose response, cytotoxicity control, ATP luminescence, cherry-pick samples (AID 687004); type: functional, cell-based; conditions: Homo sapiens
# Chain of Cytochrome P450 2D6 (P10635 whole entry): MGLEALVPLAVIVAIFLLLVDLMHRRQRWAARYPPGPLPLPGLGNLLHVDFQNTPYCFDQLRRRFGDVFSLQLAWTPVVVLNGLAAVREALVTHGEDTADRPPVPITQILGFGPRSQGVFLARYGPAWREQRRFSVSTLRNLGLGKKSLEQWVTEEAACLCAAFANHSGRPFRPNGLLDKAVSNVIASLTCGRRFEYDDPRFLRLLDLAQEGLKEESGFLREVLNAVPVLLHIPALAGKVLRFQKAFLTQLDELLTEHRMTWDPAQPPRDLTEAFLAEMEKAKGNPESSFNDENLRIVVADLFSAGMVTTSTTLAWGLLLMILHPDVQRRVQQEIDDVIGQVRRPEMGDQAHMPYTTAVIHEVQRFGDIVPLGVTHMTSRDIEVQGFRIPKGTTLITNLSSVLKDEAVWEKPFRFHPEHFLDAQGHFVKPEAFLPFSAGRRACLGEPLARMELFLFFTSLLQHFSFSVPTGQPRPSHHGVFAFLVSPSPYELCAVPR
compound,measurement,setting,value
CN(C)C1C(=O)C(C(N)=O)=C(O)C2(O)C(O)=C3C(=O)c4c(O)cccc4C(C)(O)C3CC12 (stereo not given),EC50,[1],> 50 µM (active)
O=S(=O)(O)c1ccc(/N=N\c2ccccc2)cc1,AC50,Cytochrome P450 2D6,inconclusive
O=C(Nc1ccnc(-c2cccnc2)n1)c1ccc(Cl)cc1,IC50,[2],5.23 µM (active)
same,IC50,[3],5.27 µM (active)
CCn1c(C)cc(/C=C2\NC(=O)N(Cc3ccc(Cl)cc3)C2=O)c1C,AC50,Cytochrome P450 2C19; read-out: AC50,1.78 µM (inconclusive)
same,EC50,[4],0.178 µM (active)
same,IC50,[5],3.37 µM (active)
same,EC50,[6],> 30 µM (not active)
CCS(=O)(=O)Nc1c(C(=O)O)[nH]c2ccccc12,AC50,Trypsin,> 100 µM (inactive)
same,AC50,[7],0.6 µM (active)
Cc1ccccc1C(=O)c1cccn1CC(=O)NCCC1=CCCCC1,EC50,[1],> 50 µM (active)
CSc1cccc(NC(=O)c2cc(S(=O)(=O)N3CCCCC3)c[nH]2)c1,IC50,[2],3.45 µM (active)
same,IC50,[3],4.12 µM (active)
Cn1c(=O)c(=O)n(C)c2cc(S(=O)(=O)N3CCc4ccccc43)ccc21,EC50,[1],> 50 µM (active)
Nc1nn2cc(-c3ccccc3)nc2c2ccccc12,EC50,[1],> 50 µM (active)
CC(=O)COC(=O)CCc1nc2ccccc2nc1O,AC50,Cytochrome P450 2D6,inconclusive
Cc1cc2oc(C(=O)NCc3ccncc3)c(C)c2cc1C,EC50,[1],> 50 µM (active)
Cc1ccc(OCC(=O)Nc2ccc3c(c2)OCO3)c(C)c1,EC50,[8],1.1 µM (active)
same,EC50,[9],0.914 µM (active)
same,EC50,[10],> 12 µM (not active)
same,EC50,H4,31.7 µM (active)
same,EC50,[11],< 0.1 µM (active)
CCOc1cnn(Cc2ccccc2)c(=O)c1SCc1ccccc1,IC50,[2],15.5 µM (not active)
same,IC50,[3],> 39.8 µM (not active)
COC(=O)CNC(=O)CN1C(=O)N(c2ccccc2)C(N(O)C(=O)Nc2ccccc2)C1(C)C (stereo not given),AC50,Cytochrome P450 2C19; read-out: AC50,3.55 µM (inconclusive)
same,AC50,Cytochrome P450 2C9,10 µM (inconclusive)
same,AC50,Cytochrome P450 2D6,inconclusive
O=C(CCl)N(c1ccccc1)c1c[nH]c2ccccc12,EC50,[12],3.3 µM (active)
same,AC50,[13],8.51 µM (active)
same,EC50,Protein RecA,0.361 µM (active)
same,EC50,[14],3.78 µM (active)
same,AC50,[15],5.09 µM (active)
COc1ccc2oc(C(=O)Nc3ccc(S(=O)(=O)N(C)C4CCN(C)CC4)cc3)c(C)c2c1,EC50,[4],0.17 µM (active)
same,AC50,[15],13 µM (active)
same,EC50,[6],9.46 µM (active)
CSc1nc(-c2ccc(Cl)cc2)c[nH]1,EC50,[8],0.276 µM (active)
same,AC50,[7],2.02 µM (active)
same,EC50,[9],0.386 µM (active)
same,EC50,[10],2.01 µM (active)
same,EC50,H4,< 0.1 µM (active)
same,EC50,[11],0.284 µM (active)
COc1cc(OC)c2ccc(=O)oc2c1C(CCN1CCCC(C)C1)c1ccc2c(c1)OCO2 (stereo not given),CC50,[16],> 40 µM (active)
CN(C)c1c([N+](=O)[O-])cc(N2C(=O)C=CC2=O)cc1[N+](=O)[O-],IC50,Genome polyprotein,11.1 µM (active)
same,IC50,Beta-galactosidase,> 66.6 µM (inactive)
COc1ccc(C(=O)C2=C(O)C(=O)N(CCCC(=O)O)C2c2ccc(OC)cc2)cc1 (stereo not given),AC50,Cytochrome P450 2C19,inconclusive
same,AC50,Cytochrome P450 2D6,inconclusive
Cc1ccc(NC(=O)c2ccc([N+](=O)[O-])s2)cc1S(=O)(=O)N1CCOCC1,AC50,Paired box protein Pax-8,3.94 µM (active)
same,AC50,[15],3.78 µM (active)
Cc1cccc(C)c1NC(=O)C(CCc1ccccc1)N1CCC(c2ccccc2)CC1 (stereo not given),AC50,HeLa,> 52 µM (inactive)
Cc1nn(-c2ccccc2)c(O)c1/C=N/N1C(=O)c2ccc3c4c(ccc(c24)C1=O)CC3,IC50,Beta-galactosidase,> 66.6 µM (inactive)
CC/N=c1\scc(C)n1/N=C/c1ccsc1,EC50,[8],0.582 µM (active)
same,EC50,[9],1.08 µM (active)
same,EC50,[10],0.66 µM (active)
same,EC50,H4,11.1 µM (active)
same,EC50,[11],16.6 µM (active)
